Tests used:
[1] = test system: primary fibroblasts (IMR90) transduced with H-RasG12V; experiment: Validation: manual quantification of SA-β-gal positive cells; assay type: cell-based, human; details: for % SA-β-Gal + Cells Avg: 250 nM inhibitor, +H-RasG12V IMR90, 7 additional days, >300 cells counted, triplicate
Protocol: Senescence-associated β-galactosidase (SA-β-Gal) assay has previously been described^9. Briefly, cells were fixed in 2% formaldehyde and 0.2% glutaraldehyde and washed with phosphate-buffered saline. Staining solution [40 mM Na2HPO4, 150 mM NaCl, 2 mM MgCl2, 5 mM K3Fe(CN)6, 5 mM K4Fe(CN)6, 1 mg/mL X-gal] was added with a multichannel pipette, and cells were incubated for 24 hrs. Cells were stained with DAPI (0.15 μg/mL) to visualize nuclei.
(§1) Cells with β-galactosidase (blue) positivity within the cytosol were considered positive. Cells were stained with DAPI to visualize nuclei and SAHF. Cells with punctate spots within the nuclear compartment were considered SAHF positive. Cells were imaged using a Nikon Eclipse Ni fluorescence microscope as previously described^15. Three different fields of cells were counted (total cells counted >300). These experiments were performed in triplicate. Data from validation experiments is shown as a percentage of SA-β-gal or SAHF positive cells.
These cells were then utilized in the SA-β-gal assay to examine changes in expression of SA-β-gal activity.
(§2) Other than the control, all of the tested compounds are +H-Ras^G12V. Percentage of SA-β-gal and SAHF positive cells is shown with indicated standard deviation (SD). Total cells with SA-β-gal positive cells or SAHF positive cells were counted in three separate fields (totals cells counted >300). Experiments were performed in triplicate. p-value determined by t-test.

[2] = test system: primary fibroblasts (IMR90) transduced with H-RasG12V; experiment: Validation: senescence-associated heterochromatin foci (SAHF) positive cells by DAPI staining; assay type: cell-based, human; details: for % SAHF + Cells Avg: 250 nM inhibitor, +H-RasG12V IMR90, 9 days of culture, >300 cells counted, triplicate
Protocol: as §1
After 9 days of culture, we stained the cells with DAPI to visualize the formation of SAHF.
as §2

senescence = details: literature report; cited from earlier work
[3] = test system: primary human fibroblasts (IMR90) transduced with H-RasG12V; experiment: High-throughput senescence screen (SA-β-gal area and nuclei number, high-content imaging); assay type: cell-based; details: 250 nM, 96-well, normalized to DMSO control, hit = beyond one standard deviation
Protocol: We use a model system for DIS that involves overexpressing an activated Ras in normal human fibroblast (IMR90). Upon expression of Ras, these cells undergo senescence as measured by increased β-galactosidase activity. IMR90 cells are infected with retrovirus control (496) or Ras (493). IMR90 cells were transduced over two days (Day −1 and 0) with pBABE-HRasG12V. Cells were then plated into a 96-well plate at a predetermined density (1,000 cells/well) and selected with puromycin (1 ug/mL) for two days (Day 1 and 2). The initial number of cells per well (1,000) was optimized to avoid confluence-induced growth inhibition. […] Allowing the cells to undergo senescence ([…] after puromycin selection), on day 9, cells were subjected to a quantitative SA-β-gal assay (described below) and stained with DAPI to visualize nuclei, which allowed for quantification of cell number. […]
For the screen, four fluorescence and four phase contrast images were acquired from each well of the 96-well plates with an ImageXpress Micro high-content imaging system (Molecular Devices, Sunnyvale Calif.) using the 10× objective. […] Fluorescence images were used to record DAPI staining of cell nuclei. Images were analyzed utilizing the MultiWavelength Scoring module in METAXPRESS image analysis software (Molecular Devices). […]

[4] = 250 nM, RAS-expressing cells, significance p<0.05 vs DMSO

Row | SMILES | % SA-β-Gal + Cells Avg [1] | % SAHF + Cells Avg [2] | Prevention of senescence (reported) (senescence) | Reduction of expression of SA-β-gal activity (validation, in words) [1, 4] | Inhibition of oncogenic RAS-induced SAHF formation (validation, in words) [2, 4] | Effect on SA-β-gal area and cell number (nuclei) in initial screen [3]
1 | Cn1sc(=O)n(Cc2ccccc2)c1=O [327036-89-5, GSK3β Inhibitor I] | 6.5% | 7.8% |  |  |  | 
2 | c1cc(-c2cnn3cc(-c4ccc(OCCN5CCCCC5)cc4)cnc23)ccn1 [866405-64-3, AMPK Compound C] | 4.4% | 15.9% | reported to prevent senescence |  |  | 
3 | COc1cc2ncnc(Nc3cccc(Cl)c3)c2cc1OC [175178-82-2, AG 1478] | 3.8% | 11.5% |  |  |  | 
4 | O=c1[nH]c2ccccc2n1C1CCN(Cc2ccc(-c3nc4cc5[nH]cnc5cc4nc3-c3ccccc3)cc2)CC1 [612847-09-3, Akt Inhibitor VIII] | 21.3% | 11.3% |  | failed to reduce SA-β-gal activity |  | 
5 | O=C(Nc1ccc(Cl)cc1)c1ccccc1NCc1ccncc1 [269390-69-4, VEGFR Tyrosine Kinase Inhibitor II] | 4.1% | 13.0% |  |  |  | 
6 | CCc1[nH]c(-c2ccc(OC)cc2)nc1-c1ccncc1 [172747-50-1, SB 202474] | 6.7% | 10.4% |  |  |  | 
7 | Oc1cccc(-c2nc(N3CCOCC3)c3oc4ncccc4c3n2)c1 [371935-74-9, PI-103] | 4.7% | 43.0% |  |  | failed to prevent SAHF formation | 
8 | COc1ccc(S(=O)(=O)N(CCO)c2ccccc2CN(C)CC=Cc2ccc(Cl)cc2)cc1 [139298-40-1, KN-93] | 8.1% | 12.3% |  |  |  | 
9 | O=C(Nc1cccc(Nc2nccc(Nc3cccc(C(F)(F)F)c3)n2)c1)C1CC1 [879127-16-9, Aurora Kinase Inhibitor III] | 5.7% | 15.8% |  |  |  | 
10 | Cc1cc(Nc2nc(-c3ccccc3)nc3ccccc23)n[nH]1 [404828-08-6, GSK-3 Inhibitor XIII] | 8.2% | 7.0% |  |  |  | 
11 | Cc1nc2cc3nc(-c4cccs4)cnc3cc2n1C [22617-28-8, AGL2043] | 10.9% | 10.2% |  |  |  | 
12 | O=c1c(-c2ccc(F)cc2)c(-c2ccncc2)[nH]n1-c1ccc(Cl)cc1 [219138-24-6, P38 MAPK Inhibitor] | 5.8% | 16.3% |  |  |  | 
13 | O=C1NC(=O)/C(=C/c2ccc3c(c2)OC(F)(F)O3)S1 [648449-76-7] | 20.7% | 26.9% |  |  |  | no effect on SA-β-gal area or cell number
14 | O=c1c2ccccc2[nH]c(=S)n1CCN1CCC(=C(c2ccc(F)cc2)c2ccc(F)cc2)CC1 [120166-69-0, Diacylglycerol Kinase Inhibitor II] | 5.2% | 10.4% |  |  |  | 
15 | O=C1NC(=O)C(c2cn(CCCn3ccnc3)c3ccccc23)=C1Nc1ccccc1 [257879-35-9, PKC β Inhibitor] | 5.5% | 8.3% |  |  |  | 
16 | Cc1[nH]c(/C=C2\C(=O)Nc3ccc(S(=O)(=O)N(C)c4cccc(Cl)c4)cc32)c(C)c1C(=O)N1CCN(C)CC1 [658084-23-2, Met Kinase inhibitor] | 5.0% | 14.7% |  |  |  | 
17 | COc1cc2nccc(Oc3ccc(NC(=S)NC(=O)c4ccccc4C)cc3)c2cc1OC [347155-76-4, PDGFR Tyrosine Kinase Inhibitor V] | 6.7% | 16.3% |  |  |  | 
18 | NC(=O)c1ccc2nc(-c3ccc(Oc4ccc(Cl)cc4)cc3)[nH]c2c1 [516480-79-8, Chk2 Inhibitor II] | 7.4% | 13.2% |  |  |  | 
